The values that follow come from patent US20230091472A1, “GALECTIN-3 INHIBITING C-GLYCOSIDE KETONES, ETHERS, AND ALCOHOLS” (GLYCOMIMETICS, INC., priority 2019, published 2023).

Molecules are shown by their SMILES.

The target of this test is T1, galectin-3 (Homo sapiens, UniProt P17931).
T1 construct: purchased IBL IBATGPO414
T1 sequence (P17931 whole entry): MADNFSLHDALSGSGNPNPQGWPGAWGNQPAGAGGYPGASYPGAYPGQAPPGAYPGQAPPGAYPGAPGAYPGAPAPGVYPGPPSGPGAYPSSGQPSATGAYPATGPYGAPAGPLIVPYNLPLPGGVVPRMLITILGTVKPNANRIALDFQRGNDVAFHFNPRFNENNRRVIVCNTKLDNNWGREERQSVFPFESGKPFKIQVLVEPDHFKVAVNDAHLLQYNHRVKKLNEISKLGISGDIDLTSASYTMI
Nature of the test: Galectin-3 Activity - ELISA Assay (inhibition of binding of galectin-3 to a Galβ1-3GlcNAc carbohydrate structure). Particulars: competitive ELISA; galectin-3 binding to immobilized Galβ1-3GlcNAcβ1-3Galβ1-4GlcNAcβ-PAA-biotin polymer; A450 readout; read-out: IC50 (μM), Galectin-3 Antagonist Activity. The protocol:
Galectin-3 antagonists were evaluated for their ability to inhibit binding of galectin-3 to a Galβ1-3GlcNAc carbohydrate structure. The detailed protocol was as follows. A 1 ug/mL suspension of a Galβ1-3GlcNAcβ1-3Galβ1-4GlcNAcβ-PAA-biotin polymer (Glycotech, catalog number 01-096) was prepared. A 100 uL aliquot of the polymer was added to the wells of a 96-well streptavidin-coated plate (R&D Systems, catalog number CP004). A 100 uL aliquot of 1× Tris Buffered Saline (TBS, Sigma, catalog number T5912-10X) was added to control wells. The polymer was allowed to bind to the streptavidin-coated wells for 1.5 hours at room temperature. The contents of the wells were discarded and 200 uL of 1×TBS containing 1% bovine serum albumin (BSA) was added to each well as a blocking reagent and the plate was kept at room temperature for 30 minutes. The wells were washed three times with 1×TBS containing 0.1% BSA. A serial dilution of test compounds was prepared in a separate V-bottom plate (Corning, catalog number 3897). A 75 uL aliquot of the highest concentration of the compound to be tested was added to the first well in a column of the V-bottom plate then 15 ul were serially transferred into 60 uL 1×TBS through the remaining wells in the column to generate a 1 to 5 serial dilution. A 60 uL aliquot of 2 ug/mL galectin-3 (IBL, catalog number IBATGPO414) was added to each well in the V-bottom plate. A 100 uL aliquot of the galectin-3/test compound mixture was transferred from the V-bottom plate into the assay plate containing the Galβ1-3GlcNAc polymer. Four sets of control wells in the assay plate were prepared in duplicate containing 1) both Galβ1-3GlcNAc polymer and galectin-3, 2) neither the polymer nor galectin-3, 3) galectin-3 only, no polymer, or 4) polymer only, no galectin-3. The plate was gently rocked for 1.5 hours at room temperature. The wells were washed four times with TBS/0.1% BSA. A 100 uL aliquot of anti-galectin-3 antibody conjugated to horse radish peroxidase (R&D Systems, from DGAL30 kit) was added to each well and the plate was kept at room temperature for 1 hour. The wells were washed four times with TBS/0.1% BSA. A 100 uL aliquot of TMB substrate solution was added to each well. The TMB substrate solution was prepared by making a 1:1 mixture of TMB Peroxidase Substrate (KPL, catalog number 5120-0048) and Peroxidase Substrate Solution B (KPL, catalog number 5120-0037). The plate was kept at room temperature for 10 to 20 minutes. The color development was stopped by adding 100 uL 10% phosphoric acid (RICCA Chemical Co., catalog number 5850-16). The absorbance at 450 nm (A450) was measured using a FlexStation 3 plate reader (Molecular Devices). Plots of A450 versus test compound concentration and IC50 determinations were made using GraphPad Prism 6.
With `[2H]C([2H])([2H])OC1C(n2cc(-c3cc(F)c(F)c(F)c3)nn2)[C@@H](O)C(CO)O[C@H]1[C@H](OCc1ccc(Br)cc1)C(=O)C([2H])([2H])C([2H])([2H])[2H]` (stereo partly drawn) [Compound 78], the IC50 came to 0.5 µM.
The result for `CCC(=O)[C@@H](OCc1ccc(Cl)cc1)[C@@H]1OC(CO)[C@H](O)C(n2cc(-c3cc(F)c(F)c(F)c3)nn2)C1OC` (stereo partly drawn) [Compound 35] reads 0.75 µM.
On to `CCC(=O)[C@@H](OCc1ccc(Cl)cc1)[C@@H]1OC(CO)[C@H](O)C(n2cc(-c3cc(F)c(F)c(F)c3)nn2)C1O` (stereo partly drawn) [Compound 74], for which the IC50 was determined as 0.32 µM.
The result for `[2H]C([2H])([2H])OC1C(n2cc(-c3cc(F)c(F)c(F)c3)nn2)[C@@H](O)C(CO)O[C@H]1[C@H](OCc1ccc(Br)cc1)C(=O)c1ccc(Cl)s1` (stereo partly drawn) [Compound 81] reads 3.21 µM; that for `[2H]C([2H])([2H])OC1C(n2cc(-c3cc(F)c(F)c(F)c3)nn2)[C@@H](O)C(CO)O[C@H]1[C@H](OCc1ccc(Br)cc1)C(=O)c1ccsc1` (stereo partly drawn) [Compound 80], 0.44 µM.
The result for `COC1C(n2cc(-c3cc(F)c(F)c(F)c3)nn2)[C@@H](O)C(CO)O[C@H]1[C@H](OCc1ccc(Cl)cc1)C(=O)CC(C)C` (stereo partly drawn) [Compound 33] reads 0.63 µM; that for `COC1C(n2cc(-c3cc(F)c(F)c(F)c3)nn2)[C@@H](O)C(CO)O[C@H]1[C@H](OCc1ccc(Cl)cc1)C(=O)c1cccs1` (stereo partly drawn) [Compound 34], 0.84 µM.
Take `[2H]C([2H])([2H])OC1C(n2cc(-c3cc(F)c(F)c(F)c3)nn2)[C@@H](O)C(CO)O[C@H]1[C@H](OCc1ccc(Cl)cc1)C(=O)C([2H])([2H])C([2H])([2H])[2H]` (stereo partly drawn) [Compound 76]: the IC50 stood at 0.66 µM.
Turning to `COC1C(n2cc(-c3cc(F)c(F)c(F)c3)nn2)[C@@H](O)C(CO)O[C@H]1[C@H](OCc1ccc(C(F)(F)F)nc1)C(C)(C)O` (stereo partly drawn) [Compound 44], the IC50 is 57 µM.
`[2H]C([2H])([2H])OC1C(n2cc(-c3cc(F)c(F)c(F)c3)nn2)[C@@H](O)C(CO)O[C@H]1[C@H](OCc1ccc(Br)cc1)C(=O)c1ccc(F)cc1` (stereo partly drawn) [Compound 79]: the IC50 is 1.76 µM.
On to `CC(=O)[C@@H](OCc1ccc(Br)cc1)[C@@H]1OC(CO)[C@H](O)C(n2cc(-c3cc(F)c(F)c(F)c3)nn2)C1O` (stereo partly drawn) [Compound 16], for which the IC50 was 0.32 µM.
Turning to `COC1C(n2cc(-c3cc(F)c(F)c(F)c3)nn2)[C@@H](O)C(CO)O[C@H]1[C@H](OCc1ccc(Cl)cc1)C(=O)C1CC1` (stereo partly drawn) [Compound 75], the IC50 was found to be 1.18 µM.
The result for `[2H]C([2H])([2H])OC1C(n2cc(-c3cc(F)c(F)c(F)c3)nn2)[C@@H](O)C(CO)O[C@H]1[C@H](OCc1ccc(Cl)cc1)C(C)=O` (stereo partly drawn) [Compound 77] reads 1.09 µM.
For `COC1C(n2cc(-c3cc(F)c(F)c(F)c3)nn2)[C@@H](O)C(CO)O[C@H]1[C@H](OCc1ccc(Cl)cc1)[C@@H](C)O` (stereo partly drawn) [Compound 41], the IC50 amounted to 0.59 µM.
In the case of `COC1C(n2cc(-c3cc(F)c(F)c(F)c3)nn2)[C@@H](O)C(CO)O[C@H]1[C@H](OCc1ccc(Cl)cc1)C(C)=O` (stereo partly drawn) [Compound 32], the IC50 came to 0.82 µM.

For orientation: IC50 means the concentration that inhibits the measured activity by half.
